These results are taken from US20080039455A1, “PYRAZOLOPYRIMIDINES AND SALTS THEREOF, PHARMACEUTICAL COMPOSITIONS COMPRISING SAME, METHODS OF PREPARING SAME AND USES OF SAME” (priority 2006, published 2008).

Usually IC50 stands for the concentration that gives 50% inhibition.

This assay concerns the target T1, human recombinant ALK1 (GST fused to ALK1 intracellular domain [His142-Gln503]) (Homo sapiens, UniProt P37023).
T1 construct: GST fused to ALK1 intracellular domain [His142-Gln503]; made in house
T1 sequence (P37023 142-503): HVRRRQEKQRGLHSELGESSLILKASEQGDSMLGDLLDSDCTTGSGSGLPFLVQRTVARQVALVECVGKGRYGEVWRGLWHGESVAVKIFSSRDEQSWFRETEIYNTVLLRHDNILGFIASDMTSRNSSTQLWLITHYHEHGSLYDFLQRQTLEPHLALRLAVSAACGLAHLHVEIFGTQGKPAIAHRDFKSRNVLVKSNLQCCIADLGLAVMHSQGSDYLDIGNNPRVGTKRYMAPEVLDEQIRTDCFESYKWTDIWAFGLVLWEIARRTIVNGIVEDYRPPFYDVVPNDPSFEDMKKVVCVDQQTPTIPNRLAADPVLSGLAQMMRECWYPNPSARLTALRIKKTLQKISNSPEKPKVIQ
In words: ALK1-Kinase Flashplate-Assay. The conditions noted are these: 0.5 μM ATP, biotinylated α-casein substrate; read-out: Assay 1 (ALK1-Kinase Flashplate-Assay IC50 class). Type of assay: biochemical. The essentials:
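Radiometric Flashplate assay at 20 °C: GST-ALK1 intracellular domain (5 ng/well) with 1 μM biotinylated bovine α-casein, 0.5 μM ATP plus [γ-33P]ATP in Tris pH 8.0, 1 mM MnCl2, 1% or 5% DMSO, 60 min. Normalised to no-inhibitor (0%) and 10 mM EDTA (100%); IC50 by 4-parameter fit.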

Consider `Nc1ccc(C(=O)Nc2ccc(Nc3ccn4ncc(-c5cnn(Cc6ccccc6)c5)c4n3)cc2)cc1` [Example 204, 4-Amino-N-{4-[3-(1-benzyl-1H-pyrazol-4-yl)-pyrazolo[1,5-a]pyrimidin-5-ylamino]-phenyl}-benzamide], for which the IC50 lay in the range of 1000 to 10000 nM.

Consider `Cc1ccc(Nc2ccn3ncc(-c4cccc(NS(C)(=O)=O)c4)c3n2)cc1NS(C)(=O)=O` [Example 209, N-{5-[3-(3-Methanesulfonylamino-phenyl)-pyrazolo[1,5-a]pyrimidin-5-ylamino]-2-methyl-phenyl]-methanesulfonamide], for which the half-inhibitory concentration (IC50) is < 1000 nM.

Turning to `Cc1ccc(Nc2ccn3ncc(-c4cnn(C)c4)c3n2)cc1NS(C)(=O)=O` [Example 210, N-{2-Methyl-5-[3-(1-methyl-1H-pyrazol-4-yl)-pyrazolo[1,5-a]pyrimidin-5-ylamino]-phenyl}-methanesulfonamide], the IC50 is < 1000 nM.

Take `NC(=O)c1cccc(-c2cnn3ccc(NCc4ccncc4)nc23)c1` [Example 213, 3-{5-[(Pyridin-4-ylmethyl)-amino]-pyrazolo[1,5-a]pyrimidin-3-yl}-benzamide]: the IC50 was in the range of 1000 to 10000 nM.

For `COc1cccc(-c2cnn3ccc(NCc4ccncc4)nc23)c1` [Example 215, [3-(3-Methoxy-phenyl)-pyrazolo[1,5-a]pyrimidin-5-yl]-pyridin-4-ylmethyl-amine], the IC50 was in the range of 1000 to 10000 nM.

As for `CC(=O)c1cccc(-c2cnn3ccc(NCc4ccncc4)nc23)c1` [Example 216, 1-(3-{5-[(Pyridin-4-ylmethyl)-amino]-pyrazolo[1,5-a]pyrimidin-3-yl}-phenyl)-ethanone], the IC50 fell in the range of 1000 to 10000 nM.

On to `c1cc(CNc2ccn3ncc(-c4cn[nH]c4)c3n2)ccn1` [Example 218, [3-(1H-Pyrazol-4-yl)-pyrazolo[1,5-a]pyrimidin-5-yl]-pyridin-4-ylmethyl-amine], for which the concentration for half-maximal inhibition (IC50) fell in the range of 1000 to 10000 nM.

For the compound `c1ccc(Cn2cc(-c3cnn4ccc(NCc5ccncc5)nc34)cn2)cc1` [Example 219, [3-(1-Benzyl-1H-pyrazol-4-yl)-pyrazolo[1,5-a]pyrimidin-5-yl]-pyridin-4-ylmethyl-amine], the concentration for half-maximal inhibition (IC50) was in the range of 1000 to 10000 nM.

On to `NC(=O)c1cccc(-c2cnn3ccc(NC4CCC(O)CC4)nc23)c1` (stereo not shown) [Example 220, 3-[5-(4-Hydroxy-cyclohexylamino)-pyrazolo[1,5-a]pyrimidin-3-yl]-benzamide], for which the 50% inhibitory concentration (IC50) lay within 1000 to 10000 nM.

With `Cn1cc(-c2cnn3ccc(NC4CCC(O)CC4)nc23)cn1` (stereo not shown) [Example 221, 4-[3-(1-Methyl-1H-pyrazol-4-yl)-pyrazolo[1,5-a]pyrimidin-5-ylamino]-cyclohexanol], the 50% inhibitory concentration (IC50) is 1000 to 10000 nM.

Take `NC(=O)c1cccc(-c2cnn3ccc(NCc4cccnc4)nc23)c1` [Example 223, 3-{5-[(Pyridin-3-ylmethyl)-amino]-pyrazolo[1,5-a]pyrimidin-3-yl}-benzamide]: the half-inhibitory concentration (IC50) was 1000 to 10000 nM.

For the compound `CC(=O)c1cccc(-c2cnn3ccc(NCc4cccnc4)nc23)c1` [Example 227, 1-(3-{5-[(Pyridin-3-ylmethyl)-amino]-pyrazolo[1,5-a]pyrimidin-3-yl}-phenyl)-ethanone], the IC50 lay in the range of 1000 to 10000 nM.

For `Cn1cc(-c2cnn3ccc(NCc4cccnc4)nc23)cn1` [Example 230, [3-(1-Methyl-1H-pyrazol-4-yl)-pyrazolo[1,5-a]pyrimidin-5-yl]-pyridin-3-ylmethyl-amine], the IC50 was in the range of 1000 to 10000 nM.

With `NC(=O)c1cccc(-c2cnn3ccc(Nc4ccc(N5CCOCC5)cc4)nc23)c1` [Example 232, 3-[5-(4-Morpholin-4-yl-phenylamino)-pyrazolo[1,5-a]pyrimidin-3-yl]-benzamide], the half-maximal inhibitory concentration (IC50) is < 1000 nM.

For the compound `COc1cccc(-c2cnn3ccc(Nc4ccc(N5CCOCC5)cc4)nc23)c1` [Example 233, [3-(3-Methoxy-phenyl)-pyrazolo[1,5-a]pyrimidin-5-yl]-(4-morpholin-4-yl-phenyl)-amine], the IC50 was 1000 to 10000 nM.

On to `c1csc(-c2cnn3ccc(Nc4ccc(N5CCOCC5)cc4)nc23)c1` [Example 234, (4-Morpholin-4-yl-phenyl)-(3-thiophen-2-yl-pyrazolo[1,5-a]pyrimidin-5-yl)-amine], for which the IC50 lay within 1000 to 10000 nM.
